Legend:
[1] = molecular target: Rabbit Reticulocyte Lysate (eukaryotic protein synthesis); assay: Rabbit reticulocyte lysate luciferase assay (inhibition of eukaryotic protein synthesis); assay type: biochemical; settings: class by IC50 or % inhibition @ 1 μM, read-out: Rabbit reticulocyte IC50 (μM/% inhib.)
How it was run: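 Compounds were tested in 8-point 2-fold dilution series for blocking luciferase synthesis in nuclease-treated rabbit reticulocyte lysate (30° C., 90 minutes). Luminescence read-out, corrected by no-RNA background, was expressed as % inhibition against water-only reactions.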

A. baumannii (Ab) = assay: Broth microdilution minimum inhibitory concentration (MIC); assay type: cell-based; settings: Acinetobacter baumannii; A. baumannii; growth medium with sodium bicarbonate; read-out: Ab + bicarb MIC
How it was run: (§1)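 MICs were run in triplicate per CLSI microdilution (modified, 8 dilution steps), inoculating 5×10^4 CFU/well prepared from colonies grown at 35±2° C to 0.5 McFarland. Media: CAMHB alone, with 6.25 or 25 mM final sodium bicarbonate, or with 0–50% heat-inactivated human serum.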

P. aeruginosa (Pa) = assay: as above; assay type: cell-based; settings: Pseudomonas aeruginosa, P. aeruginosa; growth medium with sodium bicarbonate; read-out: Pa MIC + bicarb
How it was run: as §1

S. aureus (Sa) = assay: as above; assay type: cell-based; settings: Staphylococcus aureus, S. aureus; growth medium with sodium bicarbonate; read-out: Sa + bicarb MIC
How it was run: as §1

E. coli (Ec) = assay: as above; assay type: cell-based; settings: Escherichia coli, E. coli; growth medium with sodium bicarbonate; read-out: E. coli + bicarb MIC
How it was run: as §1

E. faecalis (Ef) = assay: as above; assay type: cell-based; settings: Enterococcus faecalis, E. faecalis; growth medium with sodium bicarbonate; read-out: Ef + bicarb MIC
How it was run: as §1

[2] = tested on: E. coli S30 extract (bacterial protein synthesis); assay: E. coli S30 extract coupled transcription-translation luciferase assay (inhibition of bacterial protein synthesis); assay type: biochemical; settings: class by IC50 or % inhibition @ 1 μM, read-out: S30 IC50 (μM/% inhib.)
How it was run: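 Luminescent read-out of luciferase made from pBESTluc DNA by E. coli S30 extract after 1 h at 37 °C with compound in an 8-point 2-fold series. Background came from no-DNA reactions. Percent inhibition was calculated against water-only controls.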

**Q.** Which results are given for `CC(CN1CC[C@H](CN)C1)Oc1ccc(-n2ccc(NC(=O)N3CCN(C(=O)C(C)(C)N)CC3)nc2=O)cc1` (some centres unmarked) [Compound 184]?
**A.** IC50 [1]: > 1 µM; MIC (A. baumannii (Ab)): > 32 µg/mL; MIC (P. aeruginosa (Pa)): > 32 µg/mL; MIC (S. aureus (Sa)): < 8 µg/mL; MIC (E. coli (Ec)): < 8 µg/mL; MIC (E. faecalis (Ef)): 8 to 32 µg/mL; IC50 [2]: < 0.5 µM

**Q.** `CC(CN1CC[C@@H](CN)C1)Oc1ccc(-n2ccc(NC(=O)N3CCN(C(=O)C(C)(C)N)CC3)nc2=O)cc1` (some centres unmarked) [Compound 185] was tested. Which IC50 [1] did it give?
**A.** > 1 µM

**Q.** And the MIC (A. baumannii (Ab))?
**A.** > 32 µg/mL

**Q.** What about the MIC (P. aeruginosa (Pa)) of the same compound?
**A.** > 32 µg/mL

**Q.** And the MIC (S. aureus (Sa))?
**A.** < 8 µg/mL

**Q.** And the MIC (E. coli (Ec))?
**A.** < 8 µg/mL

**Q.** What about the MIC (E. faecalis (Ef)) of the same compound?
**A.** 8 to 32 µg/mL

**Q.** What about the IC50 [2] of the same compound?
**A.** < 0.5 µM

**Q.** Which IC50 [1] does the source give for `CC(COc1ccc(-n2ccc(NC(=O)N3CCN(C(=O)C(C)(C)N)CC3)nc2=O)cc1)N1CC[C@@H](CN)C1` (some centres unmarked) [Compound 186] here?
**A.** > 1 µM

**Q.** What about the MIC (A. baumannii (Ab)) of the same compound?
**A.** > 32 µg/mL

**Q.** And the MIC (P. aeruginosa (Pa))?
**A.** > 32 µg/mL

**Q.** And the MIC (S. aureus (Sa))?
**A.** < 8 µg/mL

**Q.** What about the MIC (E. coli (Ec)) of the same compound?
**A.** < 8 µg/mL

**Q.** What about the MIC (E. faecalis (Ef)) of the same compound?
**A.** 8 to 32 µg/mL

**Q.** And the IC50 [2]?
**A.** < 0.5 µM

**Q.** Which IC50 [1] does the source give for `CC(C)(N)C(=O)N1CCN(C(=O)Nc2ccn(-c3ccc(OCCN4CCCC(N)CC4)cc3)c(=O)n2)CC1` (centres unmarked) [Compound 187] here?
**A.** > 1 µM

**Q.** And the MIC (A. baumannii (Ab))?
**A.** 8 to 32 µg/mL

**Q.** And the MIC (P. aeruginosa (Pa))?
**A.** > 32 µg/mL

**Q.** And the MIC (S. aureus (Sa))?
**A.** < 8 µg/mL

**Q.** What about the MIC (E. coli (Ec)) of the same compound?
**A.** < 8 µg/mL

**Q.** And the MIC (E. faecalis (Ef))?
**A.** < 8 µg/mL

**Q.** What about the IC50 [2] of the same compound?
**A.** < 0.5 µM

**Q.** What does the source list for `CC(C)(N)C(=O)N1CCN(C(=O)Nc2ccn(-c3ccc(OCCN4CCCC(CN)C4)cc3)c(=O)n2)CC1` (centres unmarked) [Compound 188]?
**A.** IC50 [1]: > 1 µM; MIC (A. baumannii (Ab)): > 32 µg/mL; MIC (P. aeruginosa (Pa)): > 32 µg/mL; MIC (S. aureus (Sa)): < 8 µg/mL; MIC (E. coli (Ec)): < 8 µg/mL; MIC (E. faecalis (Ef)): < 8 µg/mL; IC50 [2]: < 0.5 µM

**Q.** For `CC(COc1ccc(-n2ccc(NC(=O)N3CCN(C(=O)C(C)(C)N)CC3)nc2=O)cc1)N1CC[C@H](CN)C1` (some centres unmarked) [Compound 190], which IC50 [1] is on record?
**A.** > 1 µM

**Q.** And the MIC (A. baumannii (Ab))?
**A.** > 32 µg/mL

**Q.** And the MIC (P. aeruginosa (Pa))?
**A.** > 32 µg/mL

**Q.** What about the MIC (S. aureus (Sa)) of the same compound?
**A.** < 8 µg/mL

**Q.** And the MIC (E. coli (Ec))?
**A.** < 8 µg/mL

**Q.** What about the MIC (E. faecalis (Ef)) of the same compound?
**A.** < 8 µg/mL

**Q.** What about the IC50 [2] of the same compound?
**A.** < 0.5 µM

**Q.** With `CC(COc1ccc(-n2ccc(NC(=O)N3CCN(C(=O)C(C)(C)N)CC3)nc2=O)cc1)N1CCCC(N)CC1` (centres unmarked) [Compound 191] as the compound, how does the IC50 [1] read?
**A.** > 1 µM

**Q.** And the MIC (A. baumannii (Ab))?
**A.** > 32 µg/mL

**Q.** And the MIC (P. aeruginosa (Pa))?
**A.** > 32 µg/mL

**Q.** What about the MIC (S. aureus (Sa)) of the same compound?
**A.** < 8 µg/mL

**Q.** And the MIC (E. coli (Ec))?
**A.** < 8 µg/mL

**Q.** And the MIC (E. faecalis (Ef))?
**A.** 8 to 32 µg/mL

**Q.** And the IC50 [2]?
**A.** 0.5 to 1 µM

**Q.** For `NC1CCCN(CCc2ccc(-n3ccc(NC(=O)N4CCC5(CC4)CNC5)nc3=O)cc2)CC1` (centres unmarked) [Compound 192], which IC50 [1] is on record?
**A.** > 1 µM

**Q.** And the MIC (A. baumannii (Ab))?
**A.** > 32 µg/mL

**Q.** And the MIC (P. aeruginosa (Pa))?
**A.** > 32 µg/mL

**Q.** What about the MIC (S. aureus (Sa)) of the same compound?
**A.** < 8 µg/mL

**Q.** What about the MIC (E. coli (Ec)) of the same compound?
**A.** < 8 µg/mL

**Q.** What about the MIC (E. faecalis (Ef)) of the same compound?
**A.** 8 to 32 µg/mL

**Q.** What about the IC50 [2] of the same compound?
**A.** > 1 µM

**Q.** Which results are given for `NC1CCCN(CCc2ccc(-n3ccc(NC(=O)N4CC5(CC(N)C5)C4)nc3=O)cc2)CC1` (centres unmarked) [Compound 193]?
**A.** IC50 [1]: > 1 µM; MIC (A. baumannii (Ab)): > 32 µg/mL; MIC (P. aeruginosa (Pa)): > 32 µg/mL; MIC (S. aureus (Sa)): < 8 µg/mL; MIC (E. coli (Ec)): < 8 µg/mL; MIC (E. faecalis (Ef)): 8 to 32 µg/mL; IC50 [2]: < 0.5 µM

**Q.** How did the IC50 [1] turn out when `NCC1CN(C(=O)Nc2ccn(-c3ccc(CCN4CCCC(N)CC4)cc3)c(=O)n2)C1` (centres unmarked) [Compound 194] was run?
**A.** > 1 µM

**Q.** And the MIC (A. baumannii (Ab))?
**A.** > 32 µg/mL

**Q.** What about the MIC (P. aeruginosa (Pa)) of the same compound?
**A.** > 32 µg/mL

**Q.** And the MIC (S. aureus (Sa))?
**A.** > 32 µg/mL

**Q.** And the MIC (E. coli (Ec))?
**A.** < 8 µg/mL

**Q.** And the MIC (E. faecalis (Ef))?
**A.** > 32 µg/mL

**Q.** And the IC50 [2]?
**A.** 0.5 to 1 µM

**Q.** What does the source list for `NC1CCCN(CCc2ccc(-n3ccc(NC(=O)N4CC5(CCC5N)C4)nc3=O)cc2)CC1` (centres unmarked) [Compound 195]?
**A.** IC50 [1]: > 1 µM; MIC (A. baumannii (Ab)): > 32 µg/mL; MIC (P. aeruginosa (Pa)): > 32 µg/mL; MIC (S. aureus (Sa)): 8 to 32 µg/mL; MIC (E. coli (Ec)): > 32 µg/mL; MIC (E. faecalis (Ef)): > 32 µg/mL; IC50 [2]: 0.5 to 1 µM

**Q.** Which IC50 [1] does the source give for `CC(C)(N)C(=O)N1CCN(C(=O)Nc2ccn(-c3ccc(CCN4CCC(N)CC4)cc3)c(=O)n2)CC1` [Compound 198] here?
**A.** > 1 µM

**Q.** What about the MIC (A. baumannii (Ab)) of the same compound?
**A.** > 32 µg/mL

**Q.** What about the MIC (P. aeruginosa (Pa)) of the same compound?
**A.** > 32 µg/mL

**Q.** What about the MIC (S. aureus (Sa)) of the same compound?
**A.** 8 to 32 µg/mL

**Q.** What about the MIC (E. coli (Ec)) of the same compound?
**A.** < 8 µg/mL

**Q.** And the MIC (E. faecalis (Ef))?
**A.** 8 to 32 µg/mL

**Q.** And the IC50 [2]?
**A.** < 0.5 µM

**Q.** Which results are given for `C[C@@](N)(CO)C(=O)N1CCN(C(=O)Nc2ccn(-c3ccc(CCN4CCC(N)CC4)cc3)c(=O)n2)CC1` [Compound 199]?
**A.** IC50 [1]: > 1 µM; MIC (A. baumannii (Ab)): > 32 µg/mL; MIC (P. aeruginosa (Pa)): > 32 µg/mL; MIC (S. aureus (Sa)): 8 to 32 µg/mL; MIC (E. coli (Ec)): < 8 µg/mL; MIC (E. faecalis (Ef)): > 32 µg/mL; IC50 [2]: < 0.5 µM

**Q.** How did the IC50 [1] turn out when `CCOC(=O)C1(CN)CN(Cc2ccc(-n3ccc(NC(=O)N4CCN(C(=O)C(C)(C)N)CC4)nc3=O)cc2)C1` [Compound 201] was run?
**A.** > 1 µM

**Q.** And the MIC (A. baumannii (Ab))?
**A.** > 32 µg/mL

**Q.** And the MIC (P. aeruginosa (Pa))?
**A.** > 32 µg/mL

**Q.** And the MIC (S. aureus (Sa))?
**A.** > 32 µg/mL

**Q.** And the MIC (E. coli (Ec))?
**A.** > 32 µg/mL

**Q.** And the MIC (E. faecalis (Ef))?
**A.** > 32 µg/mL

**Q.** What about the IC50 [2] of the same compound?
**A.** > 1 µM

From US12503452B2 (Curza Global, LLC, priority 2019, dated 2025)
